Target: T1, recombinant human PDK1 (Homo sapiens, UniProt O15530)
T1 construct: containing amino acids 51-556 of the human PDK1 enzyme; made in house; host or cells: Sf9 insect cells
T1 sequence (O15530 51-556): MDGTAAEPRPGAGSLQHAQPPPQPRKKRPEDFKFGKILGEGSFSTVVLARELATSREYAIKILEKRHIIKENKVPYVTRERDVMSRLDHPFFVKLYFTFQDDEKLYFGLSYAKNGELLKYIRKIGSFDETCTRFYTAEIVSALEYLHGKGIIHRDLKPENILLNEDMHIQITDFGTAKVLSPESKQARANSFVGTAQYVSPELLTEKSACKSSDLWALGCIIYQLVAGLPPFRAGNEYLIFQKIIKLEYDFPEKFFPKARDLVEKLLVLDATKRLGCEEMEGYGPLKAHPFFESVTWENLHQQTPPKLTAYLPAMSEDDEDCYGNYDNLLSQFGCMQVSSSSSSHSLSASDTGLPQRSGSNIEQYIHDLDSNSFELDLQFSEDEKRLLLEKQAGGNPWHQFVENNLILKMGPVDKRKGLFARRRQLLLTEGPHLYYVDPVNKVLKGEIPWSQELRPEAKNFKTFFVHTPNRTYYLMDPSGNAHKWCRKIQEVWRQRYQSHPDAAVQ
Assay: PDK1 IMAP fluorescence polarization assay (inhibition of peptide substrate phosphorylation)
Assay type: biochemical

[1] = Table 6, 10 nM PDK1 enzyme, 100 nM peptide substrate, 100 nM PIFtide, 2.5 uM ATP, 1.5 hours

Row | SMILES | IC50 (Table 10, compounds 97-132) | IC50 [1]
1 | NCC1CCN(c2c(F)cccc2NC(=O)c2nc(-c3cn[nH]c3)c[nH]2)CC1 [Compound 53, N-[2-[4-(aminomethyl)-1-piperidinyl]-3-fluorophenyl]-4-(1H-pyrazol-4-yl)-1H-imidazole-2-carboxamide] | – | 1 to 50 nM
2 | NCC1CCN(c2c(F)cccc2NC(=O)c2nc(-c3cccc(Cl)c3)c[nH]2)CC1 [Compound 34, N-[2-[4-(aminomethyl)-1-piperidinyl]-3-fluorophenyl]-4-(3-chlorophenyl)-1H-imidazole-2-carboxamide] | – | 51 to 250 nM
3 | Cc1cc(-c2c[nH]c(C(=O)Nc3cccc(F)c3N3CCC(C(=O)N4CC5CCC(C4)O5)CC3)n2)ccn1 [Compound 78, N-[3-fluoro-2-[4-(8-oxa-3-azabicyclo[3.2.1]oct-3-ylcarbonyl)-1-piperidinyl]phenyl]-4-(2-methyl-4-pyridinyl)-1H-imidazole-2-carboxamide] | – | 251 to 1000 nM
4 | CCNC(=O)C1CCN(c2c(F)cccc2NC(=O)c2nc(-c3ccnc(C)c3)c[nH]2)CC1 [Compound 60, N-ethyl-1-[2-fluoro-6-[[[4-(2-methyl-4-pyridinyl)-1H-imidazol-2-yl]carbonyl]amino]phenyl]-4-piperidinecarboxamide] | – | 1000 to 5000 nM
5 | N[C@@H]1CCCN(c2c(F)cccc2NC(=O)c2nc(-c3ccnc(O)c3)c[nH]2)C1 [Compound 25, N-[2-(3(R)-amino-1-piperidinyl)-3-fluorophenyl]-4-(2-hydroxy-4-pyridinyl)-1H-imidazole-2-carboxamide] | – | 1000 to 5000 nM
6 | N#Cc1cccc(-c2c[nH]c(C(=O)Nc3cccc(F)c3N3CCC(CN)CC3)n2)n1 [Compound 44, N-[2-[4-(aminomethyl)-1-piperidinyl]-3-fluorophenyl]-4-(6-cyano-2-pyridinyl)-1H-imidazole-2-carboxamide] | – | 251 to 1000 nM
7 | Cc1cc(-c2c[nH]c(C(=O)Nc3cccc(F)c3N3CCC(C(=O)N4CC5CC4CO5)CC3)n2)ccn1 (stereo not drawn) [Compound 79, N-[3-fluoro-2-[4-(2-oxa-5-azabicyclo[2.2.1]hept-5-ylcarbonyl)-1-piperidinyl]phenyl]-4-(2-methyl-4-pyridinyl)-1H-imidazole-2-carboxamide] | – | 1000 to 5000 nM
8 | NCC1CCN(c2c(F)cccc2NC(=O)c2nc(-c3ccnc(N)c3)c[nH]2)CC1 [Compound 27, N-[2-[4-(aminomethyl)-1-piperidinyl]-3-fluorophenyl]-4-(2-amino-4-pyridinyl)-1H-imidazole-2-carboxamide] | – | 1 to 50 nM
9 | CNc1nc(-c2c[nH]c(C(=O)Nc3cccc(F)c3N3CCC[C@@H](N)C3)n2)cc(N2CC(C(=O)NC3CCCCC3)CCC2C)n1 (mixture of isomers) [Compound 114, 1-(6-(2-(2-((R)-3-aminopiperidin-1-yl)-3-fluorophenylcarbamoyl)-1H-imidazol-4-yl)-2-(methylamino)pyrimidin-4-yl)-N-cyclohexyl-6-methylpiperidine-3-carboxamide] | 1 to 50 nM | –
10 | NCC1CCN(c2c(F)cccc2NC(=O)c2nc(-c3cc(N[C@H](CO)c4ccccc4)nc(N)n3)c[nH]2)CC1 [Compound 77, 4-[2-amino-6-[(2-hydroxy-1(S)-phenylethyl)amino]-4-pyrimidinyl]-N-[2-[4-(aminomethyl)-1-piperidinyl]-3-fluorophenyl]-1H-imidazole-2-carboxamide] | – | 1 to 50 nM
11 | N[C@@H]1CCCN(c2c(F)cccc2NC(=O)c2nc(-c3cnn(Cc4cccnc4)c3)c[nH]2)C1 [Compound 13, N-[2-(3(R)-amino-1-piperidinyl)-3-fluorophenyl]-4-[1-(3-pyridinylmethyl)-1H-pyrazol-4-yl]-1H-imidazole-2-carboxamide] | – | 51 to 250 nM
12 | Cc1cc(-c2c[nH]c(C(=O)Nc3cccc(F)c3N3CCC[C@@H](N)C3)n2)nc(N)n1 [Compound 29, 4-(2-amino-6-methyl-4-pyrimidinyl)-N-[2-(3(R)-amino-1-piperidinyl)-3-fluorophenyl]-1H-imidazole-2-carboxamide] | – | 1 to 50 nM
13 | NCC1CCN(c2c(F)cccc2NC(=O)c2nc(-c3cncnc3)c[nH]2)CC1 [Compound 63, N-[2-[4-(aminomethyl)-1-piperidinyl]-3-fluorophenyl]-4-(5-pyrimidinyl)-1H-imidazole-2-carboxamide] | – | 1000 to 5000 nM
14 | CN(C)CCOc1ccccc1NC(=O)c1nc(-c2c[nH]c3ccccc23)c[nH]1 [Compound 17, N-[2-[2-(dimethylamino)ethoxy]phenyl]-4-(1H-indol-3-yl)-1H-imidazole-2-carboxamide] | – | 251 to 1000 nM
15 | Nc1ccc(N2CCC[C@@H](N)C2)c(NC(=O)c2ncc[nH]2)c1 [Compound 1, N-[5-amino-2-(3(R)-amino-1-piperidinyl)phenyl]-1H-imidazole-2-carboxamide] | – | 51 to 250 nM
16 | NCC1CCN(c2ccc(N)cc2NC(=O)c2ncc[nH]2)CC1 [Compound 3, N-[5-amino-2-[4-(aminomethyl)-1-piperidinyl]phenyl]-1H-imidazole-2-carboxamide] | – | 251 to 1000 nM

The remaining lines, values ahead:

Row | IC50 (Table 10, compounds 97-132) | IC50 [1] | SMILES
17 | 1 to 50 nM | – | CNc1nc(-c2c[nH]c(C(=O)Nc3cccc(F)c3N3CCC(CN)CC3)n2)cc(N2CCC[C@@H](N)C2)n1 [Compound 126, (R)—N-(2-(4-(aminomethyl)piperidin-1-yl)-3-fluorophenyl)-4-(6-(3-aminopiperidin-1-yl)-2-(methylamino)pyrimidin-4-yl)-1H-imidazole-2-carboxamide]
18 | 1 to 50 nM | – | CNc1nc(-c2c[nH]c(C(=O)Nc3cccc(F)c3N3CCC(CN)CC3)n2)cc(N2C[C@H](C(=O)NC3CCCCC3)CC[C@@H]2C)n1 [Compound 116, (3R,6S)-1-(6-(2-(2-(4-(aminomethyl)piperidin-1-yl)-3-fluorophenylcarbamoyl)-1H-imidazol-4-yl)-2-(methylamino)pyrimidin-4-yl)-N-cyclohexyl-6-methylpiperidine-3-carboxamide]
19 | 1 to 50 nM | – | CNc1nc(-c2c[nH]c(C(=O)Nc3cccc(F)c3N3CCC(CN)CC3)n2)cc(N2CCN(C(C)=O)CC2)n1 [Compound 101, 4-(6-(4-acetylpiperazin-1-yl)-2-(methylamino)pyrimidin-4-yl)-N-(2-(4-(aminomethyl)piperidin-1-yl)-3-fluorophenyl)-1H-imidazole-2-carboxamide]
20 | – | 51 to 250 nM | Cc1cc(-c2c[nH]c(C(=O)Nc3cccc(F)c3N3CCC(C(=O)N4CCOC(CN)C4)CC3)n2)ccn1 (stereo not drawn) [Compound 89, N-[2-[4-[[2-(aminomethyl)-4-morpholinyl]carbonyl]-1-piperidinyl]-3-fluorophenyl]-4-(2-methyl-4-pyridinyl)-1H-imidazole-2-carboxamide]
21 | 1 to 50 nM | – | CNc1nc(-c2c[nH]c(C(=O)Nc3cccc(F)c3N3CCC(CN)CC3)n2)cc(N2CCN(C(=O)OC)CC2)n1 [Compound 100, methyl 4-(6-(2-(2-(4-(aminomethyl)piperidin-1-yl)-3-fluorophenylcarbamoyl)-1H-imidazol-4-yl)-2-(methylamino)pyrimidin-4-yl)piperazine-1-carboxylate]
22 | 1 to 50 nM | – | CNc1nc(-c2c[nH]c(C(=O)Nc3cccc(F)c3N3CCC4(CCNC4)CC3)n2)cc(N2CC(C(=O)NC3CCCCC3)CCC2C)n1 (racemic) [Compound 119, N-cyclohexyl-1-(6-(2-(3-fluoro-2-(2,8-diazaspiro[4.5]decan-8-yl)phenylcarbamoyl)-1H-imidazol-4-yl)-2-(methylamino)pyrimidin-4-yl)-6-methylpiperidine-3-carboxamide]
23 | 251 to 1000 nM | – | Cc1cc(-c2c[nH]c(C(=O)Nc3cccc(F)c3N3CCC[C@@H](N)C3)n2)cc(Cl)n1 [Compound 98, (R)—N-(2-(3-aminopiperidin-1-yl)-3-fluorophenyl)-4-(2-chloro-6-methylpyridin-4-yl)-1H-imidazole-2-carboxamide]
24 | 1 to 50 nM | – | CNc1nc(-c2c[nH]c(C(=O)Nc3cccc(F)c3N3CCC(CN)CC3)n2)cc(N2CC[C@@](COC)(C(=O)NC3CCCCC3)C2)n1 [Compound 132, (R)—N-(2-(4-(aminomethyl)piperidin-1-yl)-3-fluorophenyl)-4-(6-(3-(cyclohexylcarbamoyl)-3-(methoxymethyl)pyrrolidin-1-yl)-2-(methylamino)pyrimidin-4-yl)-1H-imidazole-2-carboxamide]
25 | 1 to 50 nM | – | CNc1nc(-c2c[nH]c(C(=O)Nc3ccccc3N3CCNCC3)n2)cc(N2CC(C(=O)NC3CCCCC3)CCC2C)n1 (racemic) [Compound 102, N-cyclohexyl-6-methyl-1-(2-(methylamino)-6-(2-(2-(piperazin-1-yl)phenylcarbamoyl)-1H-imidazol-4-yl)pyrimidin-4-yl)piperidine-3-carboxamide]
26 | 1000 to 5000 nM | – | CNc1nc(-c2c[nH]c(C(=O)Nc3ccccc3N3CCNCC3)n2)cc(N2CCN(C(=O)OCc3ccccc3)CC2)n1 [Compound 105, benzyl 4-(2-(methylamino)-6-(2-(2-(piperazin-1-yl)phenylcarbamoyl)-1H-imidazol-4-yl)pyrimidin-4-yl)piperazine-1-carboxylate]
27 | – | 51 to 250 nM | Cc1cc(-c2c[nH]c(C(=O)Nc3cccc(F)c3N3CCC(C(=O)N4CCOCC4CN)CC3)n2)ccn1 (stereo not drawn) [Compound 81, N-[2-[4-[[3-(aminomethyl)-4-morpholinyl]carbonyl]-1-piperidinyl]-3-fluorophenyl]-4-(2-methyl-4-pyridinyl)-1H-imidazole-2-carboxamide]
